Columns and labels:
[1] = tested on: Cimex lectularius (adults); assay: Device choice test in arenas: treated device vs untreated control at 0.1 mg and 0.5 mg (Tables 4 and 5); type: in vivo; details: 20 bugs per arena, against UTC device
Method: In this example, 20 Cimex lectularius (adults) were placed in plastic boxes (20×20 cm). The bottom of each box was covered with paper. A piece of folded filter paper served as a shelter for the Cimex lectularius bed bugs. The bed bugs were fed two days before they were put into the test-arenas. As set forth in Table 4, the ability of 2-Heptanone and 2-Heptanone-oxime to attract bed bugs at a concentration of 0.1 mg and 0.5 mg was evaluated. Device (A) includes 2-Heptanone, 2-Heptanone oxime, or both 2-Heptanone and 2-Heptanone oxime. Device (B) served as an untreated control. [table] […] The total number of bugs per arena was 20.

[2] = tested on: Cimex lectularius (adults); assay: Device choice test in arenas: compound device vs mixture device vs untreated control (Tables 2 and 3); type: in vivo; details: 1.0 mg of each compound per device (Device A), 20 bugs per arena, against mixture device and UTC
Method: The attraction, arresting, or aggregation of bed bugs from the species Cimex lectularius to cholesterol, 2-Heptanone, and 2-Heptanone oxime was evaluated in Tables 2 and 3 by the following methodology. In this example, 20 Cimex lectularius (adults) were placed in plastic boxes (20×20 cm). The bottom of each box was covered with paper. A piece of folded filter paper served as a shelter for the Cimex lectularius bed bugs. The bed bugs were fed two days before they were put into the test-arenas. As set forth in Table 2, three types of devices were compared: Device (A): a device containing cholesterol (Box 1), a device containing 2-Heptanone (Box 2), a device containing 2-Heptanone-oxime (Box 3), and a device containing 2-Heptanone and 2-Heptanone-oxime (Box 4); Device (B): a device containing a mixture of cholesterol, 2-Heptanone, and 2-Heptanone-oxime (Box 1-4); and Device (C) a device without an attractant, arresting, or aggregating compound, serving as a control (“UTC”). The concentrations of the compounds tested are as follows: Cholesterol—1% in ethanol, 0.1 ml per detection device (1 mg a.i.); 2-Heptanone—1% in ethanol, 0.1 ml per detection device (1 mg a.i.); and 2-Heptanone oxime—1% in ethanol, 0.1 ml per detection device (1 mg a.i.). [table] The number of bed bugs in the different devices and on the bottom of the arenas were counted at day 1, day 4, and day 7 after the start of the trial. The total number of bugs per arena was 20. The relative effectiveness of cholesterol, 2-Heptanone, and 2-Heptanone-oxime in attracting, arresting, or aggregating bed bugs was evaluated in Table 3.

Row | Compound | Number of bed bugs in the device (Compounds + concentrations) ([1]; 0.1 mg per device, day 1) | Number of bed bugs in the device (Compounds + concentrations) ([1]; 0.1 mg per device, day 3) | Number of bed bugs in the device (Compounds + concentrations) ([1]; 0.1 mg per device, day 6) | Number of bed bugs in the device (Compounds + concentrations) ([1]; 0.5 mg per device, day 1) | Number of bed bugs in the device (Compounds + concentrations) ([1]; 0.5 mg per device, day 3) | Number of bed bugs in the device (Compounds + concentrations) ([1]; 0.5 mg per device, day 6) | Number of bed bugs in the device (Compounds) ([2]; day 1) | Number of bed bugs in the device (Compounds) ([2]; day 4) | Number of bed bugs in the device (Compounds) ([2]; day 7)
1 | CCCCCC(C)=O [2-Heptanone] | 0 | 0 | 1 | 0 | 0 | 1 | 2 | 2 | 2
2 | CC(C)CCC[C@@H](C)[C@H]1CC[C@H]2[C@@H]3CC=C4C[C@@H](O)CC[C@]4(C)[C@H]3CC[C@]12C [Cholesterol, cholesterol] |  |  |  |  |  |  | 1 | 1 | 1
3 | CCCCCC(C)=NO [2-Heptanone-oxime, 2-Heptanone oxime] | 12 | 14 | 15 | 8 | 11 | 12 | 13 | 13 | 13
